Laboratory results from patent US20160303189A1, “Applications of Recombined Ganoderma Lucidum Immunoregulation Protein in Preparing Drugs for Treating Tissue Fibrosis” (priority 2014, published 2016).

Legend:
[1] = tested on: myocardial tissue of mice (myocardial fibrosis model); assay: Establishment of Dox mice myocardial fibrosis models, histological grading;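 note: mice given Dox by injection twice weekly, hearts fixed in paraformaldehyde and scored histologically, with sampling on days 35, 42 and 49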
Procedure: 100 female Kunming mice weighed 18-22 g were picked and divided into 5 groups: saline group, model group 1 (Dox 1 mg/kg), model group 2 (Dox 2 mg/kg), model group 3 (Dox 3 mg/kg) model group 4 (Dox 4 mg/kg), the number of mice in each group were 15, 15, 25, 30 and 15. Twice a week, every mouse was injected 2000 every time, in which 1 mg/kg Dox, 2 mg/kg Dox, 3 mg/kg Dox or 4 mg/kg Dox was dissolved.
The activities of the mice were closely watched and deaths of the mice were recorded every day at 5:00 pm and 9:00 am. Three days, the 35th the 42nd and the 49th day were chosen to take samples. After deaths, hearts of the mice were taken and rinsed with cold PBS and placed on a clean dry filter paper, then they were put into paraformaldehyde solution to be fixed. The models to assess myocardial fibrosis were established according to histological analysis, the changes in ventricular cavity of the mice, perivascular fibrosis, interstitial fibrosis, and vacuole formation and other changes were taken into consideration to determine whether the model was useable.

[2] = tested on: mice (renal fibrosis model); assay: Model making of renal fibrosis of mice with cisplatin (CDDP), survival and weight; format: in vivo
Procedure: The number of mice in each group was 12, 12 and 12. They were given intraperitoneal injections for 200 μl/per time/per mouse for 5 consecutive days, and the injectionvolumes contained the appropriate doses of cisplatin (CDDP). On the 1st, the 3rd, the 5th, the 7th, the 14th and the 28th days the mice were weighed and the statistics for the survival rates in each group were recorded.

[3] = tested on: BLM-induced pulmonary fibrosis; assay: Effect of rLZ-8 on BLM-induced pulmonary fibrosis of mice, Szapiel grading; format: in vivo; details: Group F: positive drug dexamethasone 4 mg/kg injected, n=12
Description: Experiment groups: there were 7 groups in the experiment and 12 mice in each group. The groups were a saline group (group A), a model group (group B), a low treatment dose group (group C), a medium dose group (group D), a high dose group (group E), a positive control group (group F) and an administration group one week after modeling (group G). The process of modeling was the same as the embodiment 1.
Treating process: groups B, C, D, E, F and G all adopted low BLM dose for modeling. Group A and Group B were injected with saline for serving as contrast groups; Groups C, D and E were injected with rLZ-8 each day for treatment. Mice in these groups were weighed every 3 days and drugs were administrated according to weights of the mice. The dose for Group C was 3.84375 μg/kg, the dose for Group D was 7.6875 μg/kg, the dose for Group E was 19.21875 μg/kg, Group F were injected with positive drug dexamethasone 4 mg/kg, Group G were injected with rLZ-8 for treatment 1 week after modeling and the dose was 7.6875 μg/kg.
On the 14th day and the 21st day, 6 mice were randomly picked and killed in each group. Lungs of the mice were taken out to watch the color of the lungs, if the surface was intact or not, and the changes in the lung surface; parts of the lung tissue were paraffin sectioned and HE stained to be examined histologically; other parts were done with RT-PCR to examine the RNA level. According to histological analysis, RNA level, protein level and the change in the amount of inflammatory cells, the grades of fibrosis were decided.

[4] = tested on: Dox-induced myocardial damage; assay: Treatment effect of rLZ-8 on Dox-induced myocardial damage in mice; format: in vivo; details: Group H: 10 mg/kg fosinopril sodium tablets, intragastric, every two days
Procedure: Experiment grouping: there were 8 experimental groups, 10 mice/per group, saline group (Group A), model group (Group B), rLZ-8 3 μg/kg (Group C), rLZ-8 6 μg/kg(Group D), rLZ-8 12 μg/kg (Group E), rLZ-8 24 μg/kg (Group F), rLZ-8 48 μg/kg (Group G) and positive control group (Group H).
Treating process: The model making process was the same as embodiment 3. The models for groups B, C, D, E, F, G and H were made with 3 mg/kg Dox, and then as control groups, Groups A and B were given intraperitoneal injection of saline once every day, and Groups C, D, E, G and H were treated with rLZ-8, intravenous injection once every 2 days. The mice were weighed every 3 days and drugs were delivered in accordance with weights. The dose for Group C was 3 μg/kg, Group D was 6 μg/kg, Group E was 12 μg/kg, Group F was 24 μg/kg, Group G was 48 μg/kg, and as the positive control group, every two days the mice in Group H were given 10 mg/kg fosinopril sodium tablets by way of intragastric administration.
Experiment records: The deaths of the mice were recorded at 9:00 and 17:00 every day and activities of the mice were closely watched. […] The myocardial tissues were made into paraffin sections and were treated with HE staining and trichrome staining to do histological examinations.
Experimental results: In order to examine myocardial fibrosis grades of the mice and myocardial fibrosis status, in the seventh week, samples were taken according to the mortality rates. […] Sample taking: the mice were killed with the right amount of anesthetic injections and hearts of the mice were isolated under sterile conditions and rinsed with cold PBS, and then blood was blotted up filter paper. The ventricles were selected and crosscut at a 1/2 section. The myocardial tissue was put into 4% paraformaldehyde solution to be fixed, then it was paraffin sectioned and HE stained. Three slices were cut from each tissue and stained under the same conditions. The myocardial tissue of the mice was Masson stained and was photographed under 20 times 40 times microscopes and statistics were recorded.

[5] = tested on: model rats with liver fibrosis; assay: Effects of rLZ-8 on body mass, liver weight and liver indexes of CCl4 model rats with liver fibrosis; format: in vivo; details: 4 weeks
Procedure: (§1) Experiment grouping: model group, positive drug group and the treatment group were given subcutaneous injection of 50% volume fraction carbon tetrachloride olive oil solution, twice a week, starting 8:00 in the morning on Mondays and Thursdays, lasting for 8 weeks to replicate the cirrhosis model. For the first time the dose was 0.5 ml/100 g in accordance with weights of the mice, then 0.3 ml/100 g every four days in accordance with weights of the mice. They ate and drank water freely. At the same time on Mondays changes in rats' weights were monitored and the possibility of liver failure was preliminary estimated in order to reduce the mortality rated caused by replicating the cirrhosis model.
(§2) Treating process: In the control group (group A), the model group (group B), the positive drug group (glycyrrhizin group C), the low-dose treatment group (group D), the medium-dose treatment group (group E) and the high-dose treatment group (group F), 8 weeks after the cirrhosis models were built, the rats were anesthetized with ether, blood was drawn from retinal venous plexus to test serum liver biochemical indicators; the positive drug group were given subcutaneous injection of Ganlixin solution, the injection volume was 12.5 mg/kg. The process was performed once a day, lasting for 4 weeks; for the low, medium and high rLZ-8 dose groups, the concentration of subcutaneous injections were 15 μg/kg, 30 μg/kg and […] respectively; the injections were given once a day for 4 weeks; till the end of the 12th week, the mice were denied food but not water for 18 hours and anesthetized with ether. The eyeball blood of the rats was drawn, about […] samples of blood were centrifuged to get serum and then were put into a −20° C. deep freezer to be tested for serum biochemical indexes.

[6] = tested on: model rats with liver fibrosis; assay: Effects of rLZ-8 on serum ALT, AST and ALB of CCl4 model rats with liver fibrosis; format: in vivo; details: Group C: glycyrrhizin (Ganlixin) 12.5 mg/kg s.c. once a day
Procedure: as §1, §2
In the present experiment, the rats' liver fibrosis models were replicated by CCl4: olive oil (1:1) for 8 weeks. […] Compared with the control group, the difference was obvious and was statistically significant. The effect of medium dose rLZ-8 was the best.

[7] = tested on: lung tissue of mice (pulmonary fibrosis model); assay: Model building of pulmonary fibrosis by BLM atomization, Szapiel grading of lung sections; format: in vivo; details: for number of mice with Szapiel grade 0 (no alveolitis or fibrosis) / number of mice with Szapiel grade I (mild alveolitis or fibrosis) / number of mice with Szapiel grade II (medium alveolitis or fibrosis) / number of mice with Szapiel grade III (severe alveolitis or fibrosis): n=12
Procedure: 1) Modeling experiment grouping: Three groups were classified, a saline group (group A), a low BLM dose group (group B 4 mg/mL), a high BLM dose group (group C 8 mg/Ml), there were 12 mice in each group. The 12 mice in each group were divided into two groups, with 6 mice in each group and the two groups of mice were respectively put into 20×20×20 cm transparent glass containers with corresponding marks, then saline and BLM was sprayed respectively into the containers with medical ultrasonic nebulizers.
2) Model administration process: Each time the spray volume was 1 ml, then a glass cover was closed for 15 minutes and the mice were put back into cages to rest for 5 minutes, and the procedure was repeated 6 times.
The mice were killed respectively after 3 days, 7 days, 14 days and 21 days of feeding, and the lungs of the mice were taken out to see changes in appearance, color and the lung surface; after the lungs were taken out, broncho-alveolar lavage was done first, and then parts of the lung tissue were sliced into paraffin sections and histological examination was done on HE stain; RT-PCR was done on another parts of lung tissue to examine RNA level. Judged from histological analysis, RNA level, protein level and changes in amounts of inflammatory cells, a decision was made to see whether the model of pulmonary fibrosis is usable. The table below is the grading standards made by method of Szapiel to evaluate grading standard of seriousness of the pathological changes in the lung tissue.
There are 4 grades in Szapiel's pathological changes in lung tissue: “0” is grade 1; “I” is grade 2; “II” is grade 3; and “III” is grade 4. The higher the grade, the severer the degree of fibrosis is.

[8] = Dox accumulated dose 30, 10 mice
[9] = Dox accumulated dose 36, 10 mice
[10] = Dox accumulated dose 42 (3 mg/kg twice a week for 7 weeks), 9 mice
[11] = Group C: glycyrrhizin (Ganlixin solution) 12.5 mg/kg subcutaneous once a day
[12] = High BLM group, 8 mg/mL atomization
[13] = Low BLM group, 4 mg/mL atomization

## COc1cccc2c1C(=O)c1c(O)c3c(c(O)c1C2=O)C[C@@](O)(C(=O)CO)C[C@@H]3O[C@H]1C[C@H](N)[C@H](O)[C@H](C)O1 [Doxorubicin]
[1]; [8]
  Interstitial Fibrosis grade 0, number of mice: 9
  Interstitial Fibrosis grade +++, number of mice: 0
  Interstitial Fibrosis grade ++, number of mice: 0
  Interstitial Fibrosis grade +, number of mice: 1
  Number of deaths: 0
  Perivascular Fibrosis grade 0, number of mice: 7
  Perivascular Fibrosis grade +++, number of mice: 0
  Perivascular Fibrosis grade ++, number of mice: 0
  Perivascular Fibrosis grade +, number of mice: 3
  Vacuolization grade 0, number of mice: 10
  Vacuolization grade +++, number of mice: 0
  Vacuolization grade ++, number of mice: 0
  Vacuolization grade +, number of mice: 0
[1]; [9]
  Interstitial Fibrosis grade 0, number of mice: 10
  Interstitial Fibrosis grade +++, number of mice: 0
  Interstitial Fibrosis grade ++, number of mice: 0
  Interstitial Fibrosis grade +, number of mice: 0
  Number of deaths: 0
  Perivascular Fibrosis grade 0, number of mice: 7
  Perivascular Fibrosis grade +++, number of mice: 0
  Perivascular Fibrosis grade ++, number of mice: 1
  Perivascular Fibrosis grade +, number of mice: 2
  Vacuolization grade 0, number of mice: 9
  Vacuolization grade +++, number of mice: 0
  Vacuolization grade ++, number of mice: 0
  Vacuolization grade +, number of mice: 1
[1]; [10]
  Interstitial Fibrosis grade 0, number of mice: 5
  Interstitial Fibrosis grade +++, number of mice: 1
  Interstitial Fibrosis grade ++, number of mice: 2
  Interstitial Fibrosis grade +, number of mice: 1
  Number of deaths: 0
  Perivascular Fibrosis grade 0, number of mice: 4
  Perivascular Fibrosis grade +++, number of mice: 1
  Perivascular Fibrosis grade ++, number of mice: 2
  Perivascular Fibrosis grade +, number of mice: 2
  Vacuolization grade 0, number of mice: 4
  Vacuolization grade +++, number of mice: 1
  Vacuolization grade ++, number of mice: 2
  Vacuolization grade +, number of mice: 2

## N.N.[Cl][Pt][Cl] [cisplatin]
[2]; CDDP 5 mg/kg intraperitoneal, 5 consecutive days, 28th day
  survival rate: 90%
[2]; CDDP 7 mg/kg intraperitoneal, 5 consecutive days, 7th day
  survival rate: 60%
[2]; CDDP 7 mg/kg intraperitoneal, 5 consecutive days, 28th day
  mice survived: 30%
[2]; cisplatin 5 mg/kg doses
  effect on weight of mice: weight loss

## C[C@@H]1C[C@H]2[C@@H]3CCC4=CC(=O)C=C[C@]4(C)[C@@]3(F)[C@@H](O)C[C@]2(C)[C@@]1(O)C(=O)CO [dexamethasone]
[3]
  number of mice with Szapiel grade 0 (no fibrosis): 0
  number of mice with Szapiel grade I (mild): 3
  number of mice with Szapiel grade II (medium): 5
  number of mice with Szapiel grade III (severe): 4

## CCC(=O)O[C@@H](O[P@](=O)(CCCCc1ccccc1)CC(=O)N1C[C@H](C2CCCCC2)C[C@H]1C(=O)O)C(C)C [fosinopril sodium]
[4]
  Deaths: 0
  Number of Mice (sampled in week 7 according to mortality, 10 mice per group at start): 7
[4]; week 7
  Interstitial Fibrosis grade 0, number of mice: 6
  Interstitial Fibrosis grade +++, number of mice: 0
  Interstitial Fibrosis grade ++, number of mice: 0
  Interstitial Fibrosis grade +, number of mice: 1
  Perivascular Fibrosis grade 0, number of mice: 5
  Perivascular Fibrosis grade +++, number of mice: 0
  Perivascular Fibrosis grade ++, number of mice: 1
  Perivascular Fibrosis grade +, number of mice: 1
  Vacuolization grade 0, number of mice: 6
  Vacuolization grade +++, number of mice: 0
  Vacuolization grade ++, number of mice: 1
  Vacuolization grade +, number of mice: 0

## CC1(C)[C@@H](O[C@H]2O[C@H](C(=O)O)[C@@H](O)[C@H](O)[C@H]2O[C@@H]2O[C@H](C(=O)O)[C@@H](O)[C@H](O)[C@H]2O)CC[C@]2(C)[C@H]3C(=O)C=C4[C@@H]5C[C@@](C)(C(=O)O)CC[C@]5(C)CC[C@@]4(C)[C@]3(C)CC[C@@H]12 [glycyrrhizin]
[5]; Group C: glycyrrhizin (Ganlixin solution) 12.5 mg/kg s.c. once a day, weight after modelling
  Model weight: 303.5 ± 39.2 g
[5]; [11]
  Final weights: 397.1 ± 46.4 g
  Liver indexes: 3.1 ± 0.4%
  Liver weights: 12.43 ± 2.25 g
[6]; Day 10
  serum ALB: 34.8 ± 0.2 g/L
  serum ALT: 143.3 ± 0.9 U/L
  serum AST: 176.2 ± 6.1 U/L
[6]; Day 20
  serum ALB: 30.0 ± 0.2 g/L
  serum ALT: 126.2 ± 1.3 U/L
  serum AST: 205.8 ± 4.2 U/L
[6]; Day 30
  serum ALB: 32.5 ± 0.1 g/L
  serum ALT: 49.5 ± 0.6 U/L
  serum AST: 59.0 ± 1.9 U/L

## bleomycin [BLM]
[7]; [12]
  number of mice with Szapiel grade 0 (no alveolitis or fibrosis): 0
  number of mice with Szapiel grade I (mild alveolitis or fibrosis): 1
  number of mice with Szapiel grade II (medium alveolitis or fibrosis): 2
  number of mice with Szapiel grade III (severe alveolitis or fibrosis): 9
[7]; [13]
  number of mice with Szapiel grade 0 (no alveolitis or fibrosis): 0
  number of mice with Szapiel grade I (mild alveolitis or fibrosis): 3
  number of mice with Szapiel grade II (medium alveolitis or fibrosis): 8
  number of mice with Szapiel grade III (severe alveolitis or fibrosis): 1
[7]; high BLM dose group, 8 mg/mL
  deaths of mice: most of them died of respiratory failures
  lung sections of the mice showing severe fibrosis: 75%
[7]; low BLM dose group, 4 mg/mL
  lung sections of the mice showing medium fibrosis: 66%
